Patent publication US12642791B2, “Inhibitors of lysyl oxidases” (UNIVERSITY OF SOUTH CAROLINA, priority 2021, dated 2026)

Tests used:
Caki-1 cells = assay: ECM crosslinking in kidney cancer cells; format: cell-based, human; conditions: 6232 at 10 uM, BAPN at 10 mM
Experimental: Immunofluorescence staining of cells was done in μ-Slide 8-well glass bottom chambers (Ibidi, Germany). Cells were fixed with 4% paraformaldehyde for 20 min, permeabilized with 0.5% Triton X-100 for 10 min and blocked in 5% BSA-PBS. Samples were incubated with primary (Collagen I, Fibronectin, F-actin, a-SMA) and secondary Alexa Fluor 647 or 488-labeled antibodies for 1.5 hours at room temperature. Cells were also counterstained with DAPI for 5 min. Images were acquired using ZEN 2012 SP5 (Black) LSM 700 (Carl Zeiss, DE).

HUVEC = assay: Viability assay in normal cells; format: cell-based; conditions: human endothelial cell line
From the text: (§1) FIG. 32. 6232 derivatives, 6403 and 6415, show no cytotoxicity in normal cells. Viability assay in normal breast cell line, MCF12A, human foreskin fibroblast cell line, HFF and human endothelial cell line, HUVEC treated with 6403 or 6415.

HFF = assay: Viability assay in normal cells; format: cell-based; conditions: human foreskin fibroblast cell line
From the text: as §1

MCF12A = assay: Viability assay in normal cells; format: cell-based, human; conditions: normal breast cell line
From the text: as §1

TM01278 PDX organoids = assay: PDX-derived TNBC organoids, combination with doxorubicin; format: cell-based, human; conditions: combination with doxorubicin (50 nM) vs single agents, 9 days
Experimental: FIG. 36. Combination of 6403 and 6415 with doxorubicin reduced the growth of the TNBC organoids. A. Representative images of TM01278 PDX organoids at day 0 and day 9 after treatment with doxorubicin (50 nM) and 6403 and 6415 treatments, alone or in combination. B. Quantification of organoid diameter and viability upon combination therapy for 9 days.
TNBC organoids were established from a fresh surgical tissue by cutting the tumor into small pieces and incubating in collagenase A solution with ROCK inhibitor on a shaker at 37° C. for 30 minutes. The collagenase activity was inhibited by adding FBS, and pipetting was done to ensure the formation of almost a single cell solution. After several washes with PBS, the cell pellet was dissolved in matrigel. Breast organoid media containing ROCK and GSK inhibitors was added after the Matrigel solidified. See, Sachs, N. et al. A Living Biobank of Breast Cancer Organoids Captures Disease Heterogeneity. Cell 172, 373-386 e310, doi:10.1016/j.cell.2017.11.010 (2018). For drug testing studies, organoids were disrupted to single cells by digesting at 37° C. for 30 mins with TrypLE (A1217701, Gibco, NY, USA) in the presence of 10 μM Rock inhibitor (s1049, Selleckchem, TX, USA). Organoids were plated into wells of 96 well plate (20.000 cells/well) on a collagen-coated surface with media containing 2% Matrigel (356252, Corning, NY, USA). Drugs were added 72 hours after plating. Cells were grown in the presence of drug or vehicle for 9 days, and photos were taken from each well to show the organoid size. Organoid viability was measured by using 3D Cell Titer Glo (Promega, USA) kit.

4T1 = assay: Syngeneic TNBC tumor model; format: in vivo, BALB/c mice
Experimental: FIG. 43. 6403 overcomes doxorubicin resistance without major toxicity in a syngeneic mouse model, 4T1. A. Tumor growth in 4T1 model treated with doxorubicin (2 mg/kg, I.V, weekly), 6403 (50 mg/kg, P.O, daily) or their combination. Representative pictures of the tumors shown on the right panel. B. Western blot analysis of LOX in 4T1 tumors from A. C. % body weight change of mice from A. D. Blood cell counts in mice from A at the end of the experiment. 500,000 4T1 cells were injected into MFP of 6-8 weeks old female BALB/c mice. When the tumors reach 100 mm3, mice were randomly distributed to 4 groups and treated with vehicle, doxorubicin (2 mg/kg once a week, I.V.), 6403 (50 mg/kg daily, oral gavage) or the combination of doxorubicin with 6403. Tumor volumes were measured using a caliper every two days, and body weights were also recorded. After 3 weeks of treatment, blood was withdrawn, and blood cells were quantified using VetScan HM5 Hematology Analyzer.

PK analysis = format: in vivo, BALB/c mice; conditions: mice, orally 50 mg/kg, n=3
Experimental: PK profiles of Lead LOX inhibitor, 6403 was tested in BALB/c mice. Three mice per group were dosed by oral gavage at 50 mg/kg. Serum samples were collected at time points; 0.25, 0.5, 2, 7 and 24 hours. 6403 was diluted with serum from healthy mice as standard and serum levels of LOX inhibitors were quantified by LC-MS/MS methods, compared to the standard readings and followed by calculation of PK parameters, including Cmax, AUC, T1/2 values, clearance (Cl) and oral bioavailability (F %). Cmax represents the maximum concentration of drug that observed in the serum. AUC is a measure of the total exposure of the drug in the serum. T1/2, half-life, is the time required to eliminate half of the drug. Cl is defined as the volume of blood from which all drug is removed per minute.

ACHN ccRCC xenografts = assay: Kidney cancer xenograft model; format: in vivo, BALB/c nude mice; conditions: 50 mg/kg, PO, daily
Experimental: FIG. 42. Efficacy of 6403 as a single agent in ccRC xenografts. Tumor volume (A), % body weight change (B) and blood count (C) of 6403-treated (50 mg/kg, PO, daily) ACHN xenografts. μg=microgram. LOX expression in ACHN cells is provided by an inset next to the graph in A.
For kidney xenografts, 4×10^6 ACHN cells were mixed with 1:1 DMEM and matrigel and injected into the flank of the BALB/c nude mice. Mouse weight and tumor volumes were measured every second day using calipers. When tumor sizes reach 100 mm^3, mice were randomly distributed into vehicle and 6403 treatment group. Mice were treated daily by oral gavage with vehicle v (50% PEG400, 1% Tween 80 in acetate buffer pH=4) or 50 mg/kg of 6403.

In vivo toxicity testing = assay: In vivo toxicity testing; design: species or system BALB/c mice
Experimental: FIG. 41. In vivo testing of 6403 with respect to PK and toxicity. A. Summary of PK parameters of 6403 given orally with 50 mg/kg, n=3. B. H&E staining of organs of BALB/c mice treated daily with 50 or 200 mg/kg of 6403 for one week. C. Body weight of mice treated with vehicle or 25, 50, 75, 100 or 200 mg/kg of 6403 for 5 days. D. Cell-free enzymatic MAO-A and MAO-B assay.

| blood counts (4T1; combination, 21-day treatment) | Area Under the Curve (AUC) (PK analysis) | clearance (Cl) (PK analysis) | half-life (T½) (PK analysis) | maximum concentration (Cmax) (PK analysis) | volume of distribution (Vd) (PK analysis) | counts of major blood cells (ACHN ccRCC xenografts) | SMILES | ECM crosslinking (Caki-1 cells) | cell viability (cytotoxicity in normal cells) (HUVEC) | cell viability (cytotoxicity in normal cells) (HFF) | cell viability (cytotoxicity in normal cells) (MCF12A) | organoid size (TM01278 PDX organoids) | organoid viability (TM01278 PDX organoids) | tumor growth (4T1; 6403 50 mg/kg P.O. daily with doxorubicin 2 mg/kg I.V. weekly, vs either alone) | body weights (4T1; combination, 21-day treatment) | body weight (ACHN ccRCC xenografts) | tumor growth (ACHN ccRCC xenografts; single agent) | blood cell counts (In vivo toxicity testing; 200 mg/kg vs vehicle) | organ damage (H&E staining of organs) (In vivo toxicity testing; 50 or 200 mg/kg daily for one week) | body weight (In vivo toxicity testing; different doses administered daily (25-200 mg/kg, 5 days)) |
| --- | --- | --- | --- | --- | --- | --- | --- | --- | --- | --- | --- | --- | --- | --- | --- | --- | --- | --- | --- | --- |
|  |  |  |  |  |  |  | Cc1nc(N)sc1-c1csc(Nc2ccc([N+](=O)[O-])cc2)n1 [compound 6232, 4-methyl-5-[2-(4-nitroanilino)thiazol-4-yl]thiazol-2-amine] | decrease in ECM crosslinking |  |  |  |  |  |  |  |  |  |  |  |  |
|  |  |  |  |  |  |  | Cc1nc(N)sc1-c1csc(N(C)c2ccc(O)cc2)n1 [compound 6415, 4-[[4-(2-amino-4-methyl-thiazol-5-yl)thiazol-2-yl]-methyl-amino]phenol] |  | no significant change in cell viability | no significant change in cell viability | no significant change in cell viability | significantly decreased organoid size | significantly decreased |  |  |  |  |  |  |  |
| no significant change | high | low | long | high | high | without impacting | CC(=O)Nc1ccc(Nc2nc(-c3sc(N)nc3C)cs2)cc1 [compound 6403, N-[4-[[4-(2-amino-4-methyl-thiazol-5-yl)thiazol-2-yl]amino]phenyl]acetamide] |  | no significant change in cell viability | no significant change in cell viability | no significant change in cell viability | significantly decreased organoid size | significantly decreased | significantly reduced tumor growth | no significant change | without impacting | successfully reduced the tumor growth | No significant effect | did not lead to any observable organ damage | No significant effect |
